Test results from patent US20040097595A1, “Phthalamide derivatives, insecticides for agricultural and horticultural use and method for application thereof” (priority 2001, published 2004).

Experiments:
Format in all cases: in vivo
[1] = tested on: Common Cutworm (Spodoptera litura); assay: Test Example 2: insecticidal effect on common cutworm, cabbage leaf immersion; conditions: cabbage leaf immersed, second-instar larvae, eight days after inoculation, 25° C.
From the text: (§1) Insecticidal Effect on Common Cutworm (Spodoptera litura)
A piece of cabbage leaf (cultivar; Shikidori) was immersed for about 30 seconds in a liquid chemical prepared by diluting a preparation containing each compound listed in Table 1 or 2 as an active ingredient to adjust the prescribed concentration. After air-dryness, it was placed in a plastic Petri dish with a diameter of 9 cm and inoculated with second-instar larvae of common cutworm, after which the dish was closed and then allowed to stand in a room thermostatted at 25° C. Eight days after the inoculation, the dead and alive were counted. The mortality was calculated according to the following equation and the insecticidal effect was judged according to the criterion shown in Test Example 1. The test was carried out with triplicate groups of 10 insects. [formula]

[2] = tested on: Diamond Back Moth (Plutella xylostella); assay: Test Example 1: insecticidal effect on diamond back moth, Chinese cabbage seedling with eggs immersed in liquid chemical; conditions: eggs on Chinese cabbage seedling immersed about 30 seconds, six days after immersion, 25° C.
From the text: Insecticidal Effect on Diamond Back Moth (Plutella xylostella)
Adult diamond back moths were released and allowed to oviposit on a Chinese cabbage seedling. Two days after the release, the seedling having the eggs deposited thereon was immersed for about 30 seconds in a liquid chemical prepared by diluting a preparation containing each compound listed in Table 1 or 2 as an active ingredient to adjust the prescribed concentration. After air-dryness, it was allowed to stand in a room thermostatted at 25° C. Six days after the immersion, the hatched insects were counted. The mortality was calculated according to the following equation and the insecticidal effect was judged according to the criterion shown below. The test was carried out with triplicate groups of 10 insects. [formula]

[3] = tested on: Common Cutworm (Spodoptera litura); assay: Comparative Example 2: insecticidal effect on common cutworm by soil treatment for cabbage; parameters: concentration or dose not given beside the values; conditions: granules in planting holes; leaf cut eleven days after transplanting; first-instar larvae; three days after inoculation
Procedure: Insecticidal Effect on Common Cutworm (Spodoptera litura) by Soil Treatment for Cabbage
At the time of trans-planting cabbage plants (cultivar: YR Seitoku), planting holes were treated with granules prepared from compound 1-51 according to Formulation Example. Eleven days after the transplanting, a leaf was cut off from the cabbage plant, placed in a plastic Petri dish, and then inoculated with 20 first-instar larvae of common cutworm. Thereafter, the dish was closed and then allowed to stand in a room thermostatted at 25° C. Three days after the inoculation, the dead and alive were counted and the mortality was calculated in the same manner as in Comparative Test Example 1.

[4] = tested on: Common Cutworm (Spodoptera litura); assay: Comparative Test Example 1: insecticidal effect on common cutworm, treated synthetic diet; conditions: 192 h, synthetic diet treated with 0.5 ml, third-instar larvae, eight days after inoculation
Procedure: as §1
A synthetic diet packed in a plastic Petri dish was treated with 0.5 ml of a liquid chemical prepared by diluting a preparation containing compound 1-51 as an active ingredient to adjust the prescribed concentration, by adding the liquid chemical dropwise to the synthetic diet. The synthetic diet was inoculated with third-instar larvae of common cutworm, after which the dish was closed and then allowed to stand in a room thermostatted at 25° C. Eight days after the inoculation, the dead and alive were counted, and the mortality was calculated according to the following equation. The test was carried out with triplicate groups of 10 insects. [formula]
The compounds described in JP-A-2001-131141 were used as comparative compounds as follows: […]

Row | Structure (SMILES) | Test Example 2 insecticidal effect (mortality grade) ([1]; 5 ppm) | Test Example 2 insecticidal effect (mortality grade) ([1]; 50 ppm) | Test Example 1 insecticidal effect (mortality grade) ([2]; 5 ppm) | Test Example 1 insecticidal effect (mortality grade) ([2]; 50 ppm) | Mortality, Highest leaf [3] [%] | Mortality, Second highest leaf [3] [%] | Mortality, Third highest leaf [3] [%] | mortality at 5 ppm [4] [%] | mortality at 50 ppm [4] [%] | mortality at 500 ppm [4] [%]
1 | CC(C)(CS(C)(=O)=O)NC(=O)c1c(I)cccc1C(=O)Nc1ccc(OC(F)(F)C(F)OC(F)(F)C(F)(F)C(F)(F)F)cc1Cl (stereo not shown) [Compound 1-83] | A (Mortality 100%) | A (Mortality 100%) | A (Mortality 100%) | A (Mortality 100%) | – | – | – | – | – | –
2 | CSCC(C)(C)NC(=O)c1c(I)cccc1C(=O)Nc1ccc(OC(F)(F)C(F)OC(F)(F)C(F)(F)C(F)(F)F)c(Cl)c1Cl (stereo not shown) [Compound 1-84] | E (Mortality 49-0%) | A (Mortality 100%) | E (Mortality 49-0%) | A (Mortality 100%) | – | – | – | – | – | –
3 | C[S+]([O-])CC(C)(C)NC(=O)c1c(I)cccc1C(=O)Nc1ccc(OC(F)(F)C(F)OC(F)(F)C(F)(F)C(F)(F)F)c(Cl)c1Cl (stereo not shown) [Compound 1-85] | E (Mortality 49-0%) | A (Mortality 100%) | A (Mortality 100%) | A (Mortality 100%) | – | – | – | – | – | –
4 | CC(C)(CS(C)(=O)=O)NC(=O)c1c(I)cccc1C(=O)Nc1ccc(OC(F)(F)C(F)OC(F)(F)C(F)(F)C(F)(F)F)c(Cl)c1Cl (stereo not shown) [Compound 1-86] | D (Mortality 79-50%) | A (Mortality 100%) | A (Mortality 100%) | A (Mortality 100%) | – | – | – | – | – | –
5 | CSCC(C)(C)NC(=O)c1c(I)cccc1C(=O)Nc1ccc(Oc2c(Cl)cc(C(F)(F)F)c(F)c2Cl)cc1Cl [Compound 1-93] | E (Mortality 49-0%) | C (Mortality 89-80%) | A (Mortality 100%) | A (Mortality 100%) | – | – | – | – | – | –
6 | CSCC(C)(C)NC(=O)c1c(I)cccc1C(=O)Nc1ccc(Oc2ccc(C(F)(F)F)cn2)cc1Cl [Compound 1-94] | E (Mortality 49-0%) | A (Mortality 100%) | A (Mortality 100%) | A (Mortality 100%) | – | – | – | – | – | –
7 | CSCC(C)(C)NC(=O)c1c(I)cccc1C(=O)Nc1ccc(Oc2ncc(C(F)(F)F)cc2Cl)cc1Cl [Compound 1-95] | E (Mortality 49-0%) | A (Mortality 100%) | A (Mortality 100%) | A (Mortality 100%) | – | – | – | – | – | –
8 | C[S+]([O-])CC(C)(C)NC(=O)c1c(I)cccc1C(=O)Nc1ccc(Oc2ncc(C(F)(F)F)cc2Cl)cc1Cl (stereo not shown) [Compound 1-96] | E (Mortality 49-0%) | A (Mortality 100%) | A (Mortality 100%) | A (Mortality 100%) | – | – | – | – | – | –
9 | CC(C)(CS(C)(=O)=O)NC(=O)c1c(I)cccc1C(=O)Nc1ccc(Oc2ncc(C(F)(F)F)cc2Cl)cc1Cl [Compound 1-97] | E (Mortality 49-0%) | A (Mortality 100%) | A (Mortality 100%) | A (Mortality 100%) | – | – | – | – | – | –
10 | CSCC(C)(C)NC(=O)c1c(I)cccc1C(=O)Nc1ccc(Oc2ncc(C(F)(F)F)cc2Cl)c(Cl)c1Cl [Compound 1-98] | E (Mortality 49-0%) | A (Mortality 100%) | A (Mortality 100%) | A (Mortality 100%) | – | – | – | – | – | –
11 | CC(C)(CS(C)(=O)=O)NC(=O)c1c(I)cccc1C(=O)Nc1ccc(Oc2ncc(C(F)(F)F)cc2Cl)c(Cl)c1Cl [Compound 1-100] | E (Mortality 49-0%) | A (Mortality 100%) | A (Mortality 100%) | A (Mortality 100%) | – | – | – | – | – | –
12 | CSCC(C)(C)NC(=O)c1c(I)cccc1C(=O)Nc1ccc(SC(F)F)cc1Cl [Compound 1-107] | E (Mortality 49-0%) | E (Mortality 49-0%) | A (Mortality 100%) | A (Mortality 100%) | – | – | – | – | – | –
13 | CSCC(C)(C)NC(=O)c1c(I)cccc1C(=O)Nc1ccc(S(=O)(=O)C(F)(F)F)cc1Cl [Compound 1-111] | E (Mortality 49-0%) | A (Mortality 100%) | A (Mortality 100%) | A (Mortality 100%) | – | – | – | – | – | –
14 | CSCC(C)(C)NC(=O)c1c(I)cccc1C(=O)Nc1ccc(OC(F)(F)F)cc1Cl [Compound A, N^1-[2-chloro-4-(trifluoromethoxy)phenyl]-N^2-(1,1-dimethyl-2-methylthioethyl)-3-iodophthalamide] | – | – | – | – | 0 | 95 | 100 | 5 | 100 | 100
15 | CC(C)(CS(C)(=O)=O)NC(=O)c1c(I)cccc1C(=O)Nc1ccc(OC(F)(F)F)cc1Cl [Compound B, N^1-[2-chloro-4-(trifluoromethoxy)phenyl]-3-iodo-N^2-(1,1-dimethyl-2-methylsulfonylethyl)phthalamide] | – | – | – | – | 0 | 50 | 100 | 0 | 100 | 100
